Reference: ChEMBL document CHEMBL1126501, “Differences in antiviral activities for isomers of a fluorinated cyclobutane nucleoside analog” (Bioorg Med Chem Lett, 1993)

Key:
Type in all cases: functional, organism-based
Human alphaherpesvirus 1 [1] = assay: In vitro antiviral activity was evaluated against HSV-1 using viral plaque reduction assay; Value ranges from […]
Human alphaherpesvirus 2 = assay: In vitro antiviral activity was evaluated against HSV-2 using viral plaque reduction assay
Human betaherpesvirus 5 [2] = assay: In vitro antiviral activity was evaluated against HCMV using viral plaque reduction assay
Human alphaherpesvirus 3 [3] = assay: In vitro antiviral activity was evaluated against VZV using viral plaque reduction assay; Value ranges from 0.02-0.08
Human alphaherpesvirus 1 [4] = assay: In vitro antiviral activity was evaluated against HSV-1 using viral plaque reduction assay; Value ranges from 0.7-2
Human betaherpesvirus 5 [5] = assay: In vitro antiviral activity was evaluated against HCMV using viral plaque reduction assay; Value ranges from 4-40
Human alphaherpesvirus 3 [6] = assay: In vitro antiviral activity was evaluated against VZV using viral plaque reduction assay; Value ranges from 2-4
Human alphaherpesvirus 1 [7] = assay: In vitro antiviral activity was evaluated against HSV-1 using viral plaque reduction assay
Human alphaherpesvirus 3 [8] = assay: In vitro antiviral activity was evaluated against VZV using viral plaque reduction assay
Human betaherpesvirus 5 [9] = assay: In vitro antiviral activity was evaluated against HCMV using viral plaque reduction assay; Value ranges from 20-40

Row | SMILES | IC50 (Human alphaherpesvirus 2; Human alphaherpesvirus 2) [nM] | IC50 (Human betaherpesvirus 5 [2]) [nM] | IC50 (Human alphaherpesvirus 2) [nM] | IC50 (Human alphaherpesvirus 1 [7]) [nM] | also measured
1 | Nc1nc(O)c2ncn([C@@H]3C[C@H](CO)C3CO)c2n1 (mixture of isomers) | 40 | 2000 | – | – | IC50 (Human alphaherpesvirus 1 [1]): 40 nM; IC50 (Human alphaherpesvirus 3 [3]): 20 nM
2 | Nc1nc(O)c2ncn([C@@H]3C(F)[C@H](CO)C3CO)c2n1 (mixture of isomers; form 1) | – | – | 700 | – | IC50 (Human alphaherpesvirus 1 [4]): 700 nM; IC50 (Human betaherpesvirus 5 [5]): 4000 nM; IC50 (Human alphaherpesvirus 3 [6]): 2000 nM
3 | Nc1nc(O)c2ncn([C@@H]3C(F)[C@H](CO)C3CO)c2n1 (mixture of isomers; form 2) | – | > 250000 | > 250000 | > 250000 | IC50 (Human alphaherpesvirus 3 [8]): > 250000 nM
4 | Nc1nc2c(ncn2COCCO)c(=O)[nH]1 [ACYCLOVIR] | 400 | – | – | 400 | IC50 (Human betaherpesvirus 5 [9]): 20000 nM
